Experimental data published in patent US10093678B2, “Azaspiro derivatives as TRPM8 antagonists” (RaQualia Pharma Inc., priority 2014, dated 2018).

Each compound was assayed against T1, human TRPM8 (Homo sapiens, UniProt Q7Z2W7) (assay: Menthol-induced Ca2+ influx in HEK293 cells stably expressing human TRPM8). Conditions: 30 microM menthol-induced Ca2+ influx, read-out: IC50 against TRPM8.
T1 construct: expressed in transfected cells; host or cells: HEK293
Format: cell-based
Procedure, shortened: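 HEK293 cells stably expressing human TRPM8 were loaded with Fluo4-AM for 1 h at room temperature, preincubated 5 min with compound, then challenged with 30 microM menthol. Calcium rise was read by FDSS imaging. IC50 came from 11-point curves using duplicate-well means.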

T1 sequence (Q7Z2W7 whole entry): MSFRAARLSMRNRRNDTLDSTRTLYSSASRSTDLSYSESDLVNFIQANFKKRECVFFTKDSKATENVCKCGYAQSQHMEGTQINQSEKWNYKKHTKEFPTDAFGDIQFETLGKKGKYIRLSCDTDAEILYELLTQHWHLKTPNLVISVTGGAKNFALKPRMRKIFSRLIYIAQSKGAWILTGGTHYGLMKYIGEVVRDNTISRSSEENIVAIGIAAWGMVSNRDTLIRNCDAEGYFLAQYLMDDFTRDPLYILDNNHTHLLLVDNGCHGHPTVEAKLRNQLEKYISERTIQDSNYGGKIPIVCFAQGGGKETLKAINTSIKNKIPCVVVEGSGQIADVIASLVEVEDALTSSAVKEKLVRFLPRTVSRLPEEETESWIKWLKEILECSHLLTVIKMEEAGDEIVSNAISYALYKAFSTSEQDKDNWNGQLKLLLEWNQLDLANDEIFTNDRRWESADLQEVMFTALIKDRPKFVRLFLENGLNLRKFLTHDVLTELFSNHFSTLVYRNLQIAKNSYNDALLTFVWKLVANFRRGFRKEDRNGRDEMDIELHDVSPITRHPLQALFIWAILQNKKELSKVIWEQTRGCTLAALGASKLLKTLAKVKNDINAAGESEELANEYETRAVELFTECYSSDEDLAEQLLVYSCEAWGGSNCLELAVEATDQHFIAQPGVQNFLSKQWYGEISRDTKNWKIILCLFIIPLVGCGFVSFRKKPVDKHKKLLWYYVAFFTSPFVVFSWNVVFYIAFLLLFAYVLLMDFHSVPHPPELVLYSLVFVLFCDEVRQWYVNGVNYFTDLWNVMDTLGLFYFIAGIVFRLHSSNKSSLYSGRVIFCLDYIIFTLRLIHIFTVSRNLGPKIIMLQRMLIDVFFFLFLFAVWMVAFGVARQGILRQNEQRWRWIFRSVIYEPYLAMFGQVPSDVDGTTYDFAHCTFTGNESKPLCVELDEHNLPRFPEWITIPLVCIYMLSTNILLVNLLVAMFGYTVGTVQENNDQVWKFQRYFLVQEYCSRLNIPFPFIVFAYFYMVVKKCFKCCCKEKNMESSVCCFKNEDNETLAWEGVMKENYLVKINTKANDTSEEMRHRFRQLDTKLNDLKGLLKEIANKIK

SMILES	IC50 [nM]
O=C(CN1C(=O)NC2(CCC(F)(F)CC2)C1=O)c1ccc(-c2ncc3ccccn23)cc1 [Example 6-63]	< 100
O=C(CN1C(=O)NC2(CCC(F)(F)CC2)C1=O)c1ccc(-c2cncc3[nH]ncc23)cc1 [Example 6-4]	< 10
N#Cc1ncccc1-c1ccc(C(=O)CN2C(=O)NC3(CCC(F)(F)CC3)C2=O)cc1 [Example 6-15]	< 100
Cc1ncsc1-c1ccc(C(=O)CN2C(=O)NC3(CCC(F)(F)CC3)C2=O)cc1 [Example 6-12]	< 100
Cc1nc(C(=O)CN2CC3(CCC(F)(F)CC3)OC2=O)c(C)n1-c1ccccc1 [Example 2-7]	< 500
O=C(CN1C(=O)NC2(CCC(F)(F)CC2)C1=O)c1ccc(-c2ccnc3[nH]ccc23)cc1 [Example 6-13]	< 100
Cc1cccc(-n2c(C)cc(C(=O)CN3C(=O)NC4(CCCCCC4)C3=O)c2C)n1 [Example 3-14]	< 100
Cc1ncccc1-c1ccc(C(=O)CN2C(=O)NC3(CCCCC3)C2=O)cc1 [Example 7-1]	< 10
O=C(CN1C(=O)NC2(CCC(F)(F)CC2)C1=O)c1ccc(-n2c(CO)nc3ccccc32)cc1 [Example 5-15, 8,8-difluoro-3-(2-(4-(2-(hydroxymethyl)-1H-benzo[d]imidazol-1-yl)phenyl)-2-oxoethyl)-1,3-diazaspiro[4.5]decane-2,4-dione]	< 100
Cc1nccnc1-c1ccc(C(=O)CN2C(=O)NC3(CCC(F)(F)CC3)C2=O)cc1 [Example 6-11]	< 100
O=C(CN1C(=O)NC2(CCC(F)(F)CC2)C1=O)c1ccc(-c2nncc3ccccc23)cc1 [Example 6-18]	< 100
O=C(CN1C(=O)NC2(CCC(F)(F)CC2)C1=O)c1ccc(-c2ncnc3ccccc23)cc1 [Example 6-2]	< 10
Cc1nc2cccnc2n1-c1ccc(C(=O)CN2C(=O)NC3(CCCCCC3)C2=O)cc1 [Example 5-32]	< 100
Cc1ccc(C#N)c(-c2ccc(C(=O)CN3C(=O)NC4(CCC(F)(F)CC4)C3=O)cc2)n1 [Example 6-92]	< 100
Cc1ccccc1-c1ccc(C(=O)CN2C(=O)NC3(CCCCC3)C2=O)cc1C [Example 13-6]	< 100

Next, values leading:

IC50 [nM]	SMILES
< 10	COc1nc2cccnc2n1-c1ccc(C(=O)CN2C(=O)NC3(CCC(F)(F)CC3)C2=O)cc1 [Example 26-1, 8,8-difluoro-3-(2-(4-(2-methoxy-3H-imidazo[4,5-b]pyridin-3-yl)phenyl)-2-oxoethyl)-1,3-diazaspiro[4.5]decane-2,4-dione]
< 100	Cc1nc(C(=O)CN2C(=O)NC3(CCC(F)(F)CC3)C2=O)sc1-c1cccc2ccncc12 [Example 18-10]
< 100	O=C(CN1C(=O)NC2(CCCCC2)C1=O)c1ccc(-c2cccnc2)cc1F [Example 13-18]
< 500	O=C(CN1C(=O)NC2(CCCCC2)C1=O)c1ccc(Oc2cccnc2)nc1 [Example 20-2]
< 100	CN(c1cccnc1)c1ccc(C(=O)CN2C(=O)NC3(CCCCC3)C2=O)cn1 [Example 19-4]
< 100	Cc1cc(C(=O)CN2C(=O)NC3(CCC(F)(F)CC3)C2=O)ccc1-c1cccc2ccncc12 [Example 13-15]
< 500	Cn1c(C(=O)CN2C(=O)NC3(CCC(F)(F)CC3)C2=O)ccc1-c1cncc(F)c1 [Example 16-31]
< 100	Cc1cc(C(=O)CN2C(=O)NC3(CCC(F)(F)CC3)C2=O)ccc1-c1cccc(C(N)=O)c1 [Example 13-13]
< 100	Cc1sc(C(=O)CN2C(=O)NC3(CCC(F)(F)CC3)C2=O)c(C)c1-c1cccnc1 [Example 15-2]
< 500	Cc1cccnc1Oc1ccc(C(=O)CN2C(=O)NC3(CCC(F)(F)CC3)C2=O)cc1 [Example 21-3]
< 500	Cc1nc(C(=O)CN2C(=O)NC3(CCC(F)(F)CC3)C2=O)sc1-c1cccc(C(N)=O)c1 [Example 18-7]
< 500	Cc1nc(C(=O)CN2C(=O)NC3(CCC(F)(F)CC3)C2=O)sc1-c1cccc2c1CNC2=O [Example 18-12]
< 10	Cc1sc(C(=O)CN2C(=O)NC3(CCC(F)(F)CC3)C2=O)c(C)c1-c1cncc(F)c1 [Example 15-6]
